{"source": "paper PMC10518340", "about": "“Secreted LRPAP1 binds and triggers IFNAR1 degradation to facilitate virus evasion from cellular innate immunity” (Signal Transduction and Targeted Therapy, 2023)", "key": {"[1]": {"test_system": "2A^pro", "test": "MST binding to recombinant 2A protease (baits r2A and 2Am; MS and MST)", "set-up": "species or system EV71", "settings": "recombinant 2A^pro (r2A) and 2A^C110A (2Am) as baits", "protocol": "(§1) The polyhistidine (His)-tag peptides, the recombinant 2A, the recombinant 2Am, and ECD-IFNAR1, were incubated with the RED-tris-NTA 2nd Generation dye (Cat#MO-L018, Nanotemper-Technologies) for 30 min, respectively. Then these fluorescently labeled peptides were mixed with the serial diluted ligands, including the scramble peptide, the commercial penetrating peptide (RV5), LRPAP1 peptides (RAPD1P1, RAPD1P2), or rLRPAP1 without His-tag, respectively. The mixtures were captured by Monolith^TM NT.115 Series capillaries (Cat# MO-K022). Capillaries were then subjected to Monolith NT for MST analysis. According to Monolith guidelines, signal-to-noise (S/N) ratios greater than 5.0 were indicated as the valid binding.\nas §1, with “NT. For” for “NT for”, “According to Monolith guidelines, signal-to-noise (S/N) ratios greater than 5.0 were indicated as the valid binding.” left out"}, "[2]": {"test_system": "IFNAR1", "test": "IFNAR1 ubiquitination, immunoprecipitation, HEK-293T cells", "assay_type": "cell-based, human", "settings": "ubiquitin, LRPAP1 and IFNAR1 overexpressed", "protocol": "(§2) The interaction of LRPAP1, LRP1 and IFNAR1 was examined by immunoprecipitation using a protocol described as followed. HEK293T cells were cultured at around 90% confluence in a 100 mm tissue culture dish. Cells were washed with 10 ml of PBS and harvested in 0.5 ml of ice-cold lysis buffer ([…], pH 7.4, 1% SDS, 1% NP-40) and Protease Cocktail (Roche) and PhoSTOP (Roche). The total extract was pre-cleared with 10 μg normal rabbit IgG (Cell signaling, 2729 S) and 20 μl of protein A/G plus-agarose (Santa Cruz Biotechnology) at 4 °C on a rotor for 1 h. After gently removed protein A/G agarose beads by centrifugation at 500 rcf for 2 min, 0.2 mg of total extract was immunoprecipitated with the indicated antibodies overnight at 4 °C on a rotor. Approximately 20 μl of protein A/G plus-agarose (Santa Cruz Biotechnology) was added at 4 °C for one hour. Then, the beads were washed three times with washing buffer (lysis buffer contained 0.1% NP-40). The pellet was suspended with 40 μl PBS and 10 μl of 5× SDS-PAGE loading buffer and the samples were boiled for 10 min."}, "[3]": {"test_system": "extracellular domain of IFNAR1", "test": "Pull-down / co-immunoprecipitation of LRPAP1 with IFNAR1", "assay_type": "binding", "settings": "HEK-293T cells ectopic-expressing LRPAP1 and IFNAR1; also mouse cerebrum", "protocol": "as §2\nThe interaction of LRPAP1, LRP1 and IFNAR1 was examined by immunoprecipitation using a protocol described as followed. HEK293T cells were cultured at around 90% confluence in a 100 mm tissue culture dish. […]"}, "[4]": {"test_system": "EV71", "test": "EV71 infection of RD cells (viral RNA, titer, viral protein, CPE)", "settings": "RD cells, 9 h; plasmid, recombinant protein or peptide pre-treatment; viral RNA / titer"}, "[5]": {"test_system": "IFNAR1", "test": "IFNAR1 protein level, HepAD38 cells, immunoblot", "assay_type": "cell-based", "settings": "siRNA or overexpression 48 h; LF 400 nM 24 h"}, "[6]": {"test_system": "HBV", "test": "HBV level in HepAD38 cells, immunoblot", "assay_type": "cell-based", "settings": "HepAD38, siRNA or overexpression 48 h"}, "[7]": {"test_system": "IFNAR1", "test": "IFNAR1 protein level, immunoblot, HEK-293T cells", "assay_type": "cell-based, human"}, "[8]": {"test_system": "type I IFN signaling pathway", "test": "Interferon-stimulated gene (ISG) mRNA levels, RD cells", "assay_type": "cell-based", "settings": "excessive LRPAP1 expression"}, "[9]": {"test_system": "HCoV-OC43", "test": "HCoV-OC43 infection of RD cells (viral RNA, TCID50, CPE)", "settings": "antibody 0.5 μg/ml; peptides 1 μM or rLRPAP1 200 nM pre-treatment 1 h, 72 h; siRNA 24 h then MOI 1, 72 h"}, "[10]": {"test_system": "HSV-1", "test": "HSV-1 infection of RD cells (viral DNA, TCID50, viral protein, CPE)"}}}
{"substance": "LDL-receptor-related protein-associated protein 1 [LRPAP1]", "values": [{"measurement": "interaction with 2A^pro", "setting": "[1]", "value": "interacts with 2A^pro"}, {"measurement": "IFNAR1 ubiquitination", "setting": "[2]", "value": "dramatically increased IFNAR1 ubiquitination"}, {"measurement": "interaction of LRPAP1 and IFNAR1 (co-immunoprecipitation)", "setting": "[3]", "value": "confirmed the interaction of LRPAP1 and IFNAR1"}, {"measurement": "EV71 infection", "setting": "[4]", "value": "strikingly promoted EV71 infection"}, {"measurement": "IFNAR1 expression in HepAD38 cells", "setting": "[5]", "value": "decreased level of IFNAR1"}, {"measurement": "HBV level", "setting": "[6]", "value": "higher HBV loads"}, {"measurement": "IFNAR1 level on simultaneous expression of LRPAP1 and 2A^pro", "setting": "[7]; co-expressed with 2A^pro", "value": "complete undetectability of IFNAR1 levels"}, {"measurement": "IFNAR1 level", "setting": "[7]; transfected cells (ectopic expression or siRNA)", "value": "decreasing IFNAR1 to a marginal detectable level"}, {"measurement": "type I IFN signaling pathway", "setting": "[8]", "value": "suppressing the type I IFN signaling pathway and the expression of downstream interferon-stimulated genes"}, {"measurement": "HCoV-OC43 CPE", "setting": "[9]", "value": "more obvious cytopathic effects"}, {"measurement": "HSV-1 CPE", "setting": "[10]; peptides 1 μM or rLRPAP1 200 nM pre-treatment 1 h, 24 h", "value": "more obvious cytopathic effect"}, {"measurement": "HSV-1 DNA replication", "setting": "[10]; pre-treated 1 h, MOI 10, 24 h, RT-qPCR", "value": "promoted the DNA replication of HSV-1"}]}
